Source: BindingDB's records for doi:10.1021/jm300804e (National Institute of Allergy and Infectious Diseases, 2012)

Columns and labels:
[1] = Inhibition of Bacillus anthracis Protective antigen-mediated cytotoxicity in RAW264.7 cells compound co-treated for 5 hrs with antigen by MTT assay in presence of lethal factor
[2] = Inhibition of Bacillus anthracis Protective antigen-mediated cytotoxicity in HT1080 cells compound co-treated for 5 hrs with antigen measured after 48 hrs by MTT assay in presence of FP59
[3] = Inhibition of Bacillus anthracis Protective antigen-mediated cytotoxicity in RAW264.7 cells compound co-treated for 5 hrs with antigen measured after 48 hrs by MTT assay in presence of FP59
[4] = Inhibition of matrix metalloprotease activated Bacillus anthracis Protective antigen-mediated cytotoxicity in HT1080 cells compound co-treated for 5 hrs with antigen measured after 48 hrs by MTT assay in presence of FP59

NC(=O)c1ccccc1NC(=O)c1ccc(C(=O)Nc2ccccc2C(N)=O)cc1
EC50 [1]: 3000 nM
EC50 [2]: 1000 nM
EC50 [3]: 1000 nM
EC50 [4]: 1000 nM

Oc1ccccc1/C=N/c1ccc(Cc2ccc(/N=C/c3ccccc3O)c(O)c2)cc1O
EC50 [1]: 3000 nM
EC50 [2]: 1000 nM
EC50 [3]: 1000 nM
EC50 [4]: 1000 nM
